The structures appear in SMILES notation. Bridge positions count the residues as written; N and C are the ends. Peptide text beside a SMILES is read from it. A value given as a limit tells only on which side of the number the result lay.

The values below come from paper PMC5690597, “Suppression and resolution of autoimmune arthritis by rhesus θ-defensin-1, an immunomodulatory macrocyclic peptide” (PLoS ONE, 2017).

Data set [1] concerns DA rats with advanced PIA. The data set can be described thus: Severe (advanced) pristane-induced arthritis (AS ≥ 12). In kind it is in vivo, rat. How it is done: Female DA/OlaHsd (D blood group allele and Agouti, also known as Dark Agouti), rats were obtained from Harlan Laboratories (Indianapolis, IN). Animals were allowed to acclimate for 48–72 hours prior to experimental use. Animals were fed standard chow ad lib during a 12-hour day/night cycle. PIA was induced in 5–7 week old animals (90–100 gm) by intradermal injection of 250 μl pristane (Sigma) divided into 3–5 sites at the base of the tail. Animals were monitored daily and disease severity of each limb was scored 0–4 using the method of Brand et al.. The severity scores for all limbs of individual animals were totaled to give an individual’s arthritis severity score (AS) ranging from zero for normal animals to maximum disease score of sixteen. Disease severity was assessed by at least two scorers and the inter-rater agreement (kappa) value was 0.806 as determined using MedCalc Statistical Software version 14.8.1 (MedCalc Software, Ostend, Belgium). In three separate trials, treatment was also blinded to scorers. There was no statistical difference between blinded and unblinded scoring of any treatment cohort. Treatment with saline (vehicle), RTD-1, or anti-arthritic agents was randomized and initiated when an animal first presented with an AS of 3 or more. […]

Data set [2] has as its system DA/OlaHsd rats with pristane-induced arthritis. The data set can be described thus: Pristane-induced arthritis (PIA), established disease (AS ≥ 3). In kind it is in vivo, rat. How it is done:
Female DA/OlaHsd (D blood group allele and Agouti, also known as Dark Agouti), rats were obtained from Harlan Laboratories (Indianapolis, IN). Animals were allowed to acclimate for 48–72 hours prior to experimental use. Animals were fed standard chow ad lib during a 12-hour day/night cycle. PIA was induced in 5–7 week old animals (90–100 gm) by intradermal injection of 250 μl pristane (Sigma) divided into 3–5 sites at the base of the tail. Animals were monitored daily and disease severity of each limb was scored 0–4 using the method of Brand et al.. The severity scores for all limbs of individual animals were totaled to give an individual’s arthritis severity score (AS) ranging from zero for normal animals to maximum disease score of sixteen. […] In three separate trials, treatment was also blinded to scorers. […] Treatment with saline (vehicle), RTD-1, or anti-arthritic agents was randomized and initiated when an animal first presented with an AS of 3 or more. RTD-1 was administered subcutaneously with doses ranging from 0.2 to 5.0 mg/kg in an injection volume of 0.5 ml at intervals ranging from once a day (qd) to once every seven days (q7d). MTX was administered at 0.25 mg/kg by intraperitoneal injection q3d. Etanercept was administered at 0.4 mg/kg by subcutaneous injection q3d.

The next data set addresses MMP-8 (Homo sapiens, UniProt P22894). The data set can be described thus: biochemical. How it is done:
(§1) Inhibition of MMPs by RTD-1 was performed as described, incubating each enzyme with 0–100 μg/ml of RTD-1. IC50 values were calculated by GraphPad Prism 5.01 (GraphPad Software, San Diego, CA) utilizing a non-linear curve fit of log [inhibitor] versus response with variable slope.

The target in the next data set is MMP-9 (Homo sapiens, UniProt P14780). The data set can be described thus: biochemical. How it is done:
as §1

Another data set has as its target MMP-14 (Homo sapiens, UniProt P50281). The data set can be described thus: biochemical. How it is done: as §1
The next data set addresses MMP-2 (Homo sapiens, UniProt P08253). The data set can be described thus: biochemical. How it is done: as §1
The next data set deals with MMP-1 (Homo sapiens, UniProt P03956). The data set can be described thus: biochemical. How it is done: as §1
A further data set addresses MMP-13 (Homo sapiens, UniProt P45452). The data set can be described thus: biochemical. How it is done:
as §1

The target of another data set is MMP-3 (Homo sapiens, UniProt P08254). The data set can be described thus: biochemical. How it is done:
as §1

In another data set the target is ADAM17 (Homo sapiens, UniProt P78536). The data set can be described thus: biochemical. How it is done:
(§2) RTD-1 was analyzed for enzymatic inhibition against zinc metalloproteases ADAM17, ADAM10, matrix metalloproteases (MMPs) 1, 2, 3, 8, 9, 13, and 14, and cysteine cathepsins (Cats) B, C, H, K, L, S, and V (Table 1). ADAM10 and ADAM17 activities were measured by release of fluorogenic peptides cleaved from pro-TNF (R&D Systems, Minneapolis, MN). ADAM10 was diluted to 0.05 μg/ml and ADAM17 to 0.1 μg/ml with 25 mM TRIS, 2.5 μM ZnCl2, 0.005% Brij35, pH 9.0 and incubated with 0 to 3 μg/ml RTD-1 dissolved in 0.01% HOAc. Assay was initiated by addition of substrate (10 μM final) and enzymatic activity measured at 37°C (ADAM10) or 22°C (ADAM17) every 30 seconds for 1 h in a SpectraMax M5e fluorometer (Molecular Devices, Sunnyvale, CA) with 320 nm excitation and 405 nm emission.
as §1

In a further data set the target is ADAM10 (Homo sapiens, UniProt O14672). The data set can be described thus: biochemical. How it is done: as §2, §1
For data set [3] the following is noted: administered subcutaneously; this study and ref 9.
The test system of another data set is FLS. The settings on record: RTD-1 0–30 μg/ml; all samples; LDH release. On the technique in general: Release of lactate dehydrogenase indicates damage to the cell membrane.

Chain of ADAM10 (O14672 214-748, species assumed): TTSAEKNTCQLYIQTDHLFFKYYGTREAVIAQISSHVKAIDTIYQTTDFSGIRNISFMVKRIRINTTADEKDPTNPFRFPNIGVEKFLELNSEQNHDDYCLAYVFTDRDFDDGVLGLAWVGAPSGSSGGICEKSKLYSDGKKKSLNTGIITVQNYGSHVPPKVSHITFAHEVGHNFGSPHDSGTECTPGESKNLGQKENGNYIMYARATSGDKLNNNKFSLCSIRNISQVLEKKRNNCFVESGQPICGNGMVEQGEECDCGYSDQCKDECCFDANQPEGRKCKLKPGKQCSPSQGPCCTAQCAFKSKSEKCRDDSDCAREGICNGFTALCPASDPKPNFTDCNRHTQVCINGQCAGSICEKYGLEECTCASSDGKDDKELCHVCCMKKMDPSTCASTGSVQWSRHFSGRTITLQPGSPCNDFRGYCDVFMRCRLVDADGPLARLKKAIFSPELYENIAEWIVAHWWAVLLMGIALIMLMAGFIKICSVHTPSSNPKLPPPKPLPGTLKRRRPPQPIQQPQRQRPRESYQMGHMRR
Chain of MMP-8 (P22894 101-467, species assumed): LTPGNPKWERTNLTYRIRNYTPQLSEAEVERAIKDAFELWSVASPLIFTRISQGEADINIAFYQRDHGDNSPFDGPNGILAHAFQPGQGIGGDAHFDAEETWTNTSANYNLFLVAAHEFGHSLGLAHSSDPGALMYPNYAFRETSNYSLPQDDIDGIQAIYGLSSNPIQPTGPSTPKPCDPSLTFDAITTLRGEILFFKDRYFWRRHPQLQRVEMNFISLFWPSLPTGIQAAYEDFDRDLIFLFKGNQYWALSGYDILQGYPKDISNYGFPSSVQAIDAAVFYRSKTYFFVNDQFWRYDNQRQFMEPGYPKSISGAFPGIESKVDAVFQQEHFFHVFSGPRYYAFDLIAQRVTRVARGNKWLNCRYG
Chain of MMP-2 (P08253 110-660, species assumed): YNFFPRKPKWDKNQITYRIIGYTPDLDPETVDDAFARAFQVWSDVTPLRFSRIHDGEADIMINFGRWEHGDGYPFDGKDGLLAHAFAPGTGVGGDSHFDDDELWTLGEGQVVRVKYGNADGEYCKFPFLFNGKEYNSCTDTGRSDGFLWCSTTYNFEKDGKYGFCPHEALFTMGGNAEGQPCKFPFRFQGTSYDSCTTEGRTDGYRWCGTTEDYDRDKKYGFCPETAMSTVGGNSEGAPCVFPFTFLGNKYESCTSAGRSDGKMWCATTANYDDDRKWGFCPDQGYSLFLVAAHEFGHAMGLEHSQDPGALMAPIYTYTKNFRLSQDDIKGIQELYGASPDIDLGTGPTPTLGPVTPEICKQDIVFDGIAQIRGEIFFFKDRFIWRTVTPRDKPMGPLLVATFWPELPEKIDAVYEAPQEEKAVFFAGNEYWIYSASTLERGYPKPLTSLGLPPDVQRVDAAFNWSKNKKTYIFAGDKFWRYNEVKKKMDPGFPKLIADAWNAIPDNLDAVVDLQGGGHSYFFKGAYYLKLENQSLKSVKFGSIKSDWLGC
Chain of MMP-1 (P03956 100-469, species assumed): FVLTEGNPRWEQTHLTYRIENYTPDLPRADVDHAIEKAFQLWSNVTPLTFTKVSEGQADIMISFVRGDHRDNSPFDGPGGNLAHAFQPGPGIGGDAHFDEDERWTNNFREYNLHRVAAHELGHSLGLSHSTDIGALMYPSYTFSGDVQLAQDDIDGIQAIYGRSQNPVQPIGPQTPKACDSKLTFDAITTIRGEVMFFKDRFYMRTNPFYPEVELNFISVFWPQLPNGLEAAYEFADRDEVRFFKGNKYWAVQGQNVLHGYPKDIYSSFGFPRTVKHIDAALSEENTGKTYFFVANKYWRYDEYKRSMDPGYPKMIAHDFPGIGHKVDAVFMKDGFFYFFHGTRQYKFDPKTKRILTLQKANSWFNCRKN
Chain of MMP-3 (P08254 100-477, species assumed): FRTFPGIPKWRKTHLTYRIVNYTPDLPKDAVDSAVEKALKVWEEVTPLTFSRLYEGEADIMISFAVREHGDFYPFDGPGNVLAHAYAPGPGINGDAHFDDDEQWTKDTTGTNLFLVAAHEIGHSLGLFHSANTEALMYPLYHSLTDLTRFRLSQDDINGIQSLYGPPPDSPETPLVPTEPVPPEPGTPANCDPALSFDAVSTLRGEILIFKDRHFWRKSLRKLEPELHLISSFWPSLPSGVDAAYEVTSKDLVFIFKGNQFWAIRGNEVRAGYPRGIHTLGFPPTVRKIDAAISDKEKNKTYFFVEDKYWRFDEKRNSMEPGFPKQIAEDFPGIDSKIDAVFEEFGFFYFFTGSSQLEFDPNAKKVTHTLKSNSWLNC
Chain of ADAM17 (P78536 215-824, species assumed): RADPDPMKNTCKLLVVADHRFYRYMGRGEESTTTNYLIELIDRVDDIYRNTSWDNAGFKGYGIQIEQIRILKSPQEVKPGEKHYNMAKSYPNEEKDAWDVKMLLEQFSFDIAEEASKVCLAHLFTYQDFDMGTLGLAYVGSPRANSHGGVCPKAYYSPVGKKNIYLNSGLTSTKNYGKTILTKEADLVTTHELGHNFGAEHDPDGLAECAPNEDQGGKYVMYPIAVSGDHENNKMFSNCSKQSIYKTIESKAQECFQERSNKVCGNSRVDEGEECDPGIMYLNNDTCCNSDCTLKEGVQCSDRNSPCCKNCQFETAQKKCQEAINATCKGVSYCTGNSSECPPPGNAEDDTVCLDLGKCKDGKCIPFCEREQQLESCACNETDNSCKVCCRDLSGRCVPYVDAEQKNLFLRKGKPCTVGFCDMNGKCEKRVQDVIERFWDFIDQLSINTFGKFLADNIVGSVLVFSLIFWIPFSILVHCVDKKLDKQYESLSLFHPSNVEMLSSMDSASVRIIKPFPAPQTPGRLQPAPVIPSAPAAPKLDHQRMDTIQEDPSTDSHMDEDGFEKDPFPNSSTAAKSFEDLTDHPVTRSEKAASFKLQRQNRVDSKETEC
Chain of MMP-9 (P14780 94-707, species assumed): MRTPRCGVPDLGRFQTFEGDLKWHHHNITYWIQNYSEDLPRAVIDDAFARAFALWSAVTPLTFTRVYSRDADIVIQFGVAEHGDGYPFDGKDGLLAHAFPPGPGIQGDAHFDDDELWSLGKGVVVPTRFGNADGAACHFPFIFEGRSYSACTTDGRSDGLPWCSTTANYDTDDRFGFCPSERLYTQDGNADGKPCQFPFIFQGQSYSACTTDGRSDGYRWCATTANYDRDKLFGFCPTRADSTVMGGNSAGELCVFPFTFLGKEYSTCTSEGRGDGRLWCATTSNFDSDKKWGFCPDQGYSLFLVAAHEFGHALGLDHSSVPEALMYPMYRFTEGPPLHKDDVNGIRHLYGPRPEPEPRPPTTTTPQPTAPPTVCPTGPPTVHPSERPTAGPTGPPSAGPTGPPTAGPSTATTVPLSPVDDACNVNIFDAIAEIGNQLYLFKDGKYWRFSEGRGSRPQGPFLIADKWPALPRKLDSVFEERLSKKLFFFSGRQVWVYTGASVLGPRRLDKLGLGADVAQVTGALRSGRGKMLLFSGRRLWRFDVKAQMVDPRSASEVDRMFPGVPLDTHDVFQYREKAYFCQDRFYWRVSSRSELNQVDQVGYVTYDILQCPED
Description for FLS: FLS were seeded at 3 × 10^3 cells/well in a 96-well TC treated plate (Greiner). Cells were allowed to adhere for 18 h and medium was replaced prior to addition of peptide or vehicle. RTD-1 was added to wells at final concentrations of 0–30 μg/ml in culture medium and incubated for 0, 24, or 48 h at 37°C in 5% CO2. FLS cell number was determined by DNA staining using CyQuant Cell Proliferation Assay Kit (Invitrogen) per manufacturer’s instructions. Cellular toxicity was determined by measuring the release of lactate dehydrogenase (LDH) using a CytoTox 96 Cytotoxicity Assay (Promega Bio Sciences, San Luis Obispo, CA) in FLS supernatants. All assays were performed with ≥ 7 replicates.

In the case of `CC[C@H](C)[C@@H]1NC(=O)[C@@H]2CSSC[C@H](NC(=O)[C@H](CCCNC(=N)N)NC(=O)[C@@H]3CSSC[C@H](NC1=O)C(=O)N[C@@H]([C@@H](C)O)C(=O)N[C@@H](CCCNC(=N)N)C(=O)NCC(=O)N[C@@H](Cc1ccccc1)C(=O)N3)C(=O)N[C@@H](CC(C)C)C(=O)N[C@H]1CSSC[C@H](NC(=O)[C@H](C(C)C)NC(=O)CNC(=O)[C@H](CCCNC(=N)N)NC(=O)[C@H](CCCNC(=N)N)NC1=O)C(=O)N[C@@H](CCCNC(=N)N)C(=O)N2` [RTD-1, rhesus θ-defensin 1] (cyclo(GFCRCLCRRGVCRCICTR); disulfide 3-16, 5-14, 7-12), the “resolution of clinical disease by day 15” value in data set [1] (5 mg/kg s.c. daily until AS = 0, AS ≥ 12 before treatment) is “complete resolution of clinical disease in all RTD-1 treated rats”. Moreover, the “RTD-1 treated animals that relapsed with joint disease” value in data set [1] (after treatment stop and a disease-free interval) was “three of five”. Also, the “complete resolution of disease (AS = 0), share of animals” value in data set [2] (5 mg/kg s.c. daily for 11 days, 9 of 31 animals, saline 2.5% (1 of 40)) is 29%. In addition, the “reduction of mean arthritis severity score (AS) at the end of the observation period compared with vehicle controls” value in data set [2] (5 mg/kg s.c. daily for 11 days, DA rats with PIA, AS ≥ 3 at start, 6 independent experiments) was 69%. Further, in [2] (5 mg/kg s.c. daily, or once every 2, 3, or 5 days, n = 5 per group, single experiment), the “disease resolution by dosing interval” value was “equivalent disease resolution”. Further, the “rate of complete disease resolution on day 11, comparison with RA drugs” value in [2] (RTD-1 s.c. (4 of 16), MTX 0.25 mg/kg i.p. q3d (1 of 22), etanercept 0.4 mg/kg s.c. q3d (0 of 21), saline 0 of 19, 2 independent experiments) was 25%. The “therapeutic effect on AS compared to vehicle control” value in data set [2] (daily s.c. 0.2 mg/kg) is recorded as “no therapeutic effect”. For the same compound, in data set [2] (daily s.c. 1 mg/kg), the “reduction in AS compared to vehicle control” value is “modest, but not statistically significant reductions in AS”. The “reduction in AS compared to vehicle control by treatment day 3” value in data set [2] (daily s.c. 3 or 5 mg/kg, 2 independent experiments) is “significant (P ≤ 0.0015) and similar reductions in AS”. The IC50 was 12 ± 0.05 µM at MMP-8; 11.1 ± 0.2 µM at MMP-9; 7.8 ± 0.3 µM at MMP-14; 19.6 ± 0.04 µM against MMP-2; more than 50 µM at MMP-1; 11 ± 0.4 µM at MMP-13. The IC50 against MMP-3 was more than 50 µM; against ADAM17, 0.11 ± 0.04 µM; on ADAM10, 0.45 ± 0.2 µM. Moreover, the tolerability entry in data set [3] was “well tolerated”. Moreover, the “cell viability in proliferation assay” value in the data set with FLS is recorded as not below 98%.

A word on the IC50: it is the concentration that gives 50% inhibition. The low end stands for inhibition by little substance, the high end for a need for much substance.
